Reference: publication PMC8764033, “Single-molecule analysis of specificity and multivalency in binding of short linear substrate motifs to the APC/C” (Nature Communications, 2022)
Where a SMILES comes first, the peptide text is derived from it.

What was measured:
APC/C^Apc10-4A, Cdh1 = assay: SMOR assay, yeast APC/C^Apc10-4A, Cdh1; format: binding, Saccharomyces cerevisiae
Description: (§1) Yeast strains were derivatives of W303 and are listed in Supplementary Table 2. For APC/C purification, we used a strain carrying Cdc16-TAP and lacking Cdh1 (DOM1126); in most experiments, the strain also carried Apc1-GFP (NHY13). Yeast were grown in YPD media to OD600 = 0.8, collected and flash-frozen. Cells were lysed by bead beating in lysis buffer A (50 mM HEPES pH 7.5, 150 mM KCl, 10% glycerol, 0.2% Triton X-100, 63 µM B-glycerophosphate, 48 µM sodium fluoride, 1 µg ml^−1 pepstatin A, 1 µg ml^−1 leupeptin, 1 µg ml^−1 aprotinin, 1 mM PMSF, 1 mM DTT, 0.5 mM EDTA) and APC/C was purified using magnetic IgG beads. The beads were washed using wash buffer A (20 mM HEPES pH 7.5, 150 mM KCl, 10% Glycerol, 0.05% Triton X-100). After incubation with purified Cdh1 or Cdc20, the APC/C was cleaved off the beads with TEV protease in wash buffer A with 0.05% Tween-20 (for single-molecule studies) or 0.05% Triton X-100 (for ensemble assays such as ubiquitylation) and used immediately.
(§2) For all SMOR experiments, 24 × 50 mm high precision glass coverslips (Bioscience Tools) and drilled microscope slides were passivated with a combination of PEG and PEG-biotin (coverslips) or PEG only (slides) following a previously published protocol for SiMPull[31]. Reaction chambers (~20 µl) were created using double-sided tape and epoxy. Protein was immobilized on the surface with 0.2 mg ml^−1 NeutrAvidin in buffer C (20 mM HEPES pH 7.5, 150 mM KCl, 10% glycerol, 0.05% Tween-20, 1 mM DTT). Excess NeutrAvidin was washed away and incubated with either biotin-conjugated mouse monoclonal anti-Strep-Tag II antibody (LSBio, Cat. No. LS-C203632-100) or biotin-conjugated rabbit polyclonal anti-GFP antibody (Rockland, Cat. No. 600-406-215) diluted in buffer C + BSA (0.1 mg ml^−1; Molecular Biology Grade Bovine Serum Albumin). Activator WD40 and activated APC/C (typically 50 µl containing about 65 ng APC/C, of which only a small fraction is immobilized on the glass) were immobilized using anti-Strep-Tag II, while APC/C alone was immobilized with anti-GFP. SMOR results were similar when performed in the buffer (wash buffer B) used in polarization anisotropy.
(§3) To capture dynamic protein–protein interactions, dye-labeled substrate diluted in buffer C + BSA was added to the chamber containing immobilized proteins. Interactions were imaged by TIRF microscopy as described below. For optimal signal-to-noise ratio, peptide concentration was no greater than 1 nM. […]
(§4) Microscopy was performed with a Nikon Eclipse TE2000-E with Perfect Focus with a 100 × 1.49na oil, Apo TIRF DIC N2, 0.13-0.2, WD0.12 objective. Movies were recorded using the Andor iXon DU-897E-CSO. […]

APC/C^Apc10-4A, Cdc20 = assay: SMOR assay, yeast APC/C^Apc10-4A, Cdc20; format: binding, Saccharomyces cerevisiae
Description: as §1, §2, §3, §4

hCdh1^WD40 = molecular target: T1, hCdh1^WD40 (Homo sapiens, UniProt Q9UM11); assay: Fluorescence anisotropy, 10 nM Cy5-labeled peptide, hCdh1^WD40; format: binding
T1 construct: human Cdh1 (aa 165–484; pNH164); made in house; host or cells: Sf9 insect cells (baculovirus)
T1 sequence (Q9UM11 165-484): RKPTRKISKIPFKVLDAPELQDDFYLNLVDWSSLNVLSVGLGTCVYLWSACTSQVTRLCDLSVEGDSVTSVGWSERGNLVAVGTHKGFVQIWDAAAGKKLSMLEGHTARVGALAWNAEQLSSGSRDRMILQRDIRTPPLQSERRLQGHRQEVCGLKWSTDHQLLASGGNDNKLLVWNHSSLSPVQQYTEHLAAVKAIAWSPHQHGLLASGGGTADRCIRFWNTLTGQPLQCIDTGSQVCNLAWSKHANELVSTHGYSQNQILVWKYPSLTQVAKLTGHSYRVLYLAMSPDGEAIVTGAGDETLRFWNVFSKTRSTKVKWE
Description: Activators were cloned into the pFastBac HT A vector, with an N-terminal 2xStrep-Tag II. For some experiments, we constructed vectors for expression of the WD40 domains of yeast Cdh1 (aa 241–550; pNH144), human Cdh1 (aa 165–484; pNH164), or human Cdc20 (aa 162–484; pNH188). For SMOR, a C-terminal GFP tag was added. Bacmid plasmids are listed in Supplementary Table 3. Plasmids were transformed into DH10Bac cells, and purified Bacmid was used to transfect Sf9 cells to generate P1 baculovirus, which was used to generate P2 virus. SF9 cells were infected with the P2 virus for 48 h. […]
Fluorescent degron peptides carried a C-terminal Cy5 label (CPC Scientific) and are listed in Supplementary Table 4. For anisotropy experiments, 10 nM fluorescent peptide was mixed with various concentrations of purified Cdh1 WD40 in wash buffer B at room temperature for 1 min, which we determined was sufficient for the binding reaction to reach equilibrium. Fluorescence was measured on a K2 Multifrequency Fluorometer at 25 °C. All Cy5-labeled peptides were excited with polarized light at 635 nm and emission was detected using a 700/75 nm bandpass filter (ET series, Chroma). […] Results were the same when peptide binding was measured in the buffer used in SMOR assays (buffer C, below). […]

[1] = Supplementary Table 1, replicate 1
[2] = Supplementary Table 1, replicate 2

## CC[C@H](C)[C@H](NC(=O)[C@H](CC(=O)O)NC(=O)[C@H](CO)NC(=O)[C@H](C)NC(=O)[C@H](C)NC(=O)[C@H](C)NC(=O)[C@H](C)NC(=O)[C@H](CCCCN)NC(=O)[C@@H]1CCCN1C(=O)[C@H](CCCCN)NC(=O)[C@H](CCC(N)=O)NC(=O)[C@@H](N)CCC(=O)O)C(=O)N[C@H](C(=O)N[C@@H](C)C(=O)N[C@@H](CO)C(=O)N[C@@H](Cc1ccccc1)C(=O)N[C@@H](CC(N)=O)C(=O)N[C@@H](CCCCN)C(=O)N[C@@H](CCSC)C(=O)N[C@@H](CC(N)=O)C(=O)N[C@@H](CCCCN)C(=O)O)[C@@H](C)O [Hsl1 D box mutant] (H-EQKPKAAAASDITASFNKMNK-OH; N-terminus and C-terminus assumed)
APC/C^Apc10-4A, Cdh1
  binding (in words): No binding
APC/C^Apc10-4A, Cdh1; [1]
  Dwell Time (in words): no binding
APC/C^Apc10-4A, Cdc20
  binding (in words): No binding
APC/C^Apc10-4A, Cdc20; [1]
  Dwell Time (in words): no binding

## CC[C@H](C)[C@H](NC(=O)[C@H](Cc1ccccc1)NC(=O)[C@H](CO)NC(=O)[C@H](CCCCN)NC(=O)[C@H](CO)NC(=O)[C@H](CCCNC(=N)N)NC(=O)[C@H](CC(N)=O)NC(=O)[C@H](CC(N)=O)NC(=O)[C@H](CC(=O)O)NC(=O)[C@H](CCCCN)NC(=O)[C@H](C)NC(=O)[C@H](C)NC(=O)[C@H](CC(C)C)NC(=O)[C@@H]1CCCN1C(=O)[C@H](CC(C)C)NC(=O)[C@H](CCCNC(=N)N)NC(=O)CNC(=O)[C@H](CCC(N)=O)NC(=O)[C@H](CCC(N)=O)NC(=O)[C@H](CCC(N)=O)NC(=O)[C@H](C)N)C(=O)N[C@@H](CCCCN)C(=O)O [ySecurin D box] (H-AQQQGRLPLAAKDNNRSKSFIK-OH; N-terminus and C-terminus assumed)
APC/C^Apc10-4A, Cdh1; [1]
  Dwell Time (in words): single frame
APC/C^Apc10-4A, Cdh1; [2]
  Dwell Time (in words): single frame
APC/C^Apc10-4A, Cdc20; [1]
  Dwell Time (in words): single frame
APC/C^Apc10-4A, Cdc20; [2]
  Dwell Time (in words): single frame

## LIYVDKENGEPGTR-K(Cy5) [hSecurin KEN, Cy5-labeled KEN box peptide of human securin/Pttg1]
hCdh1^WD40
  binding to human Cdh1 (in words): significant but low-affinity binding to Cdh1

## LPKATRKALGTVNRATEKSVK-K(Cy5) [AurKB D box, Cy5-labeled D box peptide of Aurora B kinase]
hCdh1^WD40
  binding to human Cdh1 (in words): significant but low-affinity binding to Cdh1
